Results on six compounds are retold here after patent US20080104718A1, “Transgenic Non-Human Animal Models of Ischemia-Reperfusion Injury and Uses Thereof” (UNIVERSITY OF ROCHESTER, priority 2004, published 2008).

Assay [1] can be described thus: Fasting blood glucose in STZ-induced diabetic mice. Type of assay: in vivo, mouse. As to conditions: 2 weeks after STZ injection (vehicle 107±8 mg/dl). The text has this:
After a 6 hrs fast, basal blood samples were colleted from the tip of the tail. All blood samples were immediately measured for glucose using Prestige IQ, Blood Glucose Monitoring System (Home Diagnosis, Inc, Ft. Lauderdale, Fla.).
Previously, it was reported that PKCP activation is critical in H2O2-mediated p90RSK activation. […] Since the critical role of PKCP activation in diabetes has been extensively studied, it was investigated whether p90RSK is activated in Streptozotocin (STZ)-induced hyperglycemic mice. The current study used STZ-induced diabetic mice, a known useful model for the study of diabetes (Aizawa-Abe et al., “Pathophysiological Role of Leptin in Obesity-related Hypertension,” J Clin Invest 105(9):1243-1252 (2000), which is hereby incorporated by reference in its entirety).

Assay [2] deals with PRECE. Briefly: Relative quantitative RT-PCR of PRECE mRNA in hearts of STZ-injected mice. The class given is in vivo, mouse. As to conditions: STZ injection, NLC mice, after 2 weeks. The method, then: Total RNA isolation, first-strand cDNA synthesis, and relative quantitative reverse transcription-polyinerase chain reaction (RT-PCR) using Ambion's Competimer technology were performed as we described (Aizawa et al., “Role of Phosphodiesterase 3 in NO/cGMP-Mediated Anti-inflammatory Effects in Vascular Smooth Muscle Cells,” Circ Res 93(5):406-413 (2003), which is hereby incorporated by reference in its entirety). Ambion's competimer technology allows one to modulate the amplification of 18S rRNA in the same linear range as the RNAs under study when amplified under the same condition. The following primers were used for PCR analysis: […]

In assay [3] the test system is p90RSK. Nature of the assay: p90RSK in vitro kinase assay on heart lysates of STZ-injected mice. The class given is in vivo, mouse. The method, then: Heart powder was homogenized with 3 vol of lysis buffer and centrifuged at 14,000 g (4° C. for 30 min), and protein concentration were determined. p90RSK was immunoprecipitated through the incubation of 1000 μg protein for each sample with 3 μl of the rabbit polyclonal anti-p90RSK (Santa Cruz, Santa Cruz, Calif.) antibody for 3 hrs, the addition of 40 μl of a 1:1 slurry of protein A/Sepharose beads to the extract/antibody mixture, and then incubation for 1 hour at 4° C. This complex was washed, twice each, in cell lysis buffer described above, LiCl buffer (500 mM LiCl 100 mM Tris-HCl (pH 7.6), 0.1% Triton X-100, 1 mM DTT) and wash buffer (20 mM HEPES, pH 7.2, 2 mM EGTA, 100 μM Na3VO4, 10 mM MgCl2, 1 mM DTT, 0.1% Triton X-100). After the final wash and pelleting, S6 kinase substrate peptide was used to determine p90RSK kinase activity, as previously described (Cavet et al., “14-3-3beta is a p90 Ribosomal S6 Kinase (RSK) Isoform 1-Binding Protein That Negatively Regulates RSK Kinase Activity,” J Biol Chem 278(20):18376-18383 (2003), which is hereby incorporated by reference in its entirety). The in vitro kinase assay was performed according to manufacture's protocol using a long S6 kinase substrate peptide (Upstate) to determine radiolabeled phosphate incorporation by scintillation counter. […]

Assay [4] deals with H9c2 cells. Briefly: Anoxia/reoxygenation (A/R)-induced apoptosis in transfected H9c2 cells (TUNEL). Type of assay: cell-based, rat. An excerpt:
Ad.LacZ (LACZ gene in an adenoviral vector) and Ad.DN-RSK were transduced into neonatal rat cardiomyocytes at varying MOI, as shown in FIG. 1. There was a concentration-dependent expression of DN-RSK (Fire 1) with expression greater than endogenous RSK at 100 MOI. WT-RSK, WT-NHE1, and NHE S703A cDNAs were inserted into pLL3.7-IRES-EGFP to make a pLL3.7-WT-RSK-IRES-EGFP expression vector. These vectors were transfected into H9c2 rat embryonic myoblasts using lipofectamine 2000 (Invitrogen, Carlsbad, Calif.). Cells were cultured for 24 hr to allow sufficient protein expression, then cells were exposed to anoxia. Cells were placed for 12 hr in the anoxia chamber (5% CO2 and 95% N2) and after 24 hr, reoxygenation was performed by changing the medium and placing cells in an air incubator (5% CO2 and 95% air). After 24 hr cell death was detected by TUNEL and by cell death detection ELISA kit (Roche Applied Sciences, Indianapolis, Ind.). Only transfected cells identified by EGFP expression were counted to compare the effects of vector alone (pLL3.7-IRES-EGFP) vs. WT-RSK, WT-NHE1 and MHE1-S703A (pLL3.7-WT-RSK-IRES-EGFP, pLL3.7-WT-NHE1-IRES-EGFP and pLL3.7-NHE1-S703A-IRES-EGFP).

Assay [5] deals with T1, NHE1 (Rattus norvegicus, UniProt P26431).
T1 construct: Primary cultures of cardiac myocytes were prepared from ventricles of 1 to 3-day-old neonatal Wistar rats; endogenous in cells; host or cells: primary neonatal Wistar rat ventricular cardiomyocytes, transduced with Ad.LacZ or Ad.DN-RSK; NHE1 itself not transfected
T1 sequence (P26431 whole entry): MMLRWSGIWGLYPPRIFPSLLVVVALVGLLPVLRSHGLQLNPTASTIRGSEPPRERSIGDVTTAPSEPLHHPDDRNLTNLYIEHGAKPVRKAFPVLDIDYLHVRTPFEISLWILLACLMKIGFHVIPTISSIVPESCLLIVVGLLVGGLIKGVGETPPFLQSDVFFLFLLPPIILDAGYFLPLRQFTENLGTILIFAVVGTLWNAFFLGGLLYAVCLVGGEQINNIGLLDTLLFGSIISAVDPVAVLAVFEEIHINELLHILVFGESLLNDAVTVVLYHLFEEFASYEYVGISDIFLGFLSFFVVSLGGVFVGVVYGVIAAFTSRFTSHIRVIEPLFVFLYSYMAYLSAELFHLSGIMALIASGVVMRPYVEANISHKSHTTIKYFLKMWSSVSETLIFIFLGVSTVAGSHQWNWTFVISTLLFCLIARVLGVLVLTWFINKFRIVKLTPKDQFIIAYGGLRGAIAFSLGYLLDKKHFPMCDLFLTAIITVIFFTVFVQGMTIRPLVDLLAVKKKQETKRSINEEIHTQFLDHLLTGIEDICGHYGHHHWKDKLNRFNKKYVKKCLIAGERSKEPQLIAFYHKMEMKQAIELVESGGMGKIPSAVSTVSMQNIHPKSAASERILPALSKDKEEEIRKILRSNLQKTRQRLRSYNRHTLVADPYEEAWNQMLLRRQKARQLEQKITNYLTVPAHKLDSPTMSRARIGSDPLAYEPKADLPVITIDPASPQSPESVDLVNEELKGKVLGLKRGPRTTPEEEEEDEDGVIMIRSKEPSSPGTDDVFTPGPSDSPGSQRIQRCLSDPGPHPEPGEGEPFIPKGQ
Nature of the assay: NHE1 activity (rate of pHi recovery after acid load, BCECF-AM) in neonatal rat cardiomyocytes. Type of assay: cell-based. To be noted: 100 μM H2O2. Here is the method:
Primary cultures of cardiac myocytes were prepared from ventricles of 1 to 3-day-old neonatal Wistar rats (Akimoto et al., “Heparin and Heparin Sulfate Block Angiotensin II-Induced Hypertrophy in Cultured Neonatal Rat Cardiomyocytes. A possible Role of Intrinsic Heparin-Like Molecules in Regulation of Cardiomyocyte Hypertrophy,” Circulation 93:810-816 (1996), which is hereby incorporated by reference in its entirety). Briefly, cells were dissociated by collagenase II (Worthington Biochem, NJ) from the ventricles and plated at a density of 1×10^5 cells/cm^2 on 25 mm collagen-coated coverslips in Dulbecco's modified Eagle's medium (DMEM) with 10% fetal bovine serum and 10% horse serum. After 6 hrs of plating the isolated cardiomyocytes, 10 μM cytosine arabinoside (Ara C) was added and the cells were cultured 24 hrs, after which the culture medium was changed to DMEM with 10 μM Ara C in 10% fetal bovine serum.
Isolated neonatal cardiomyocytes were cultured on 25 mm glass coverslips. The intracellular pH indicator BCECF-AM was incubated with DMEM without FBS for 30 min at 37° C. (Ozkan et al., “A Rapid Method for Measuring Intracellular pH Using BCECF-AM,” Biochem Biophys Acta 1572: 143-148 (2002), which is hereby incorporated by reference in its entirety). […] BCECF-AM was excited at 490 and 440 nm, and the emission fluorescence recorded at 500 nm. […]

The subject of assay [6] is isolated heart from WT-p90RSK-Tg mice and non-transgenic littermate control (NLC) mice. Nature of the assay: Cardiac damage: CK and LDH release from the isolated heart after ischemia/reperfusion. As to conditions: captopril 50 μM pretreatment. Set-up: species or system mouse. The method, then: Creatine kinase (CK) and lactate dehydrogenase (LDH) were measured by the University of Rochester, Department of Clinical Chemistry, and reported in clinical indices (units/L) as means ±S.D.
For isolated heart from WT-p90RSK-Tg mice and non-transgenic littermate control (NLC) mice were studied using Langendorff preparation. Animals were anaesthetized with ketamine (50 mg/kg) and xylazine (2.5 mg/kg), i.p., and heparinized (5000 U/kg), i.p., to protect the heart against microthrombi. The chest was opened at the sternum and the heart, after cannulation with a 23 G phalanged stainless steel cannula, quickly removed. The heart was retrogradely perfused through the aorta in a non-circulating Langendorff apparatus with KH buffer (118 mM NaCl, 4.7 mM KCl, 1.2 mM MgSO4, 1.2 mM KH2PO4, 2.5 mM CaCl2, 25 mM NaHCO3, 0.5 mM Na-EDTA and 11 mM glucose) at a constant pressure of 80 mmHg. The buffer was saturated with 95% O2/5% CO2 (v/v, pH 7.4, 37° C.) for 50 min. A homemade water-filled balloon was inserted into the left ventricle through the left atrium and was adjusted to a left ventricular end-diastolic pressure of 5 mmHg during initial equilibration. The distal end of the catheter was connected to an ETH-200 Bridge Amplifier (CB Sciences, Inc) and PowerLab/200 (AD Instruments) data acquisition system via a pressure transducer (DELTRAN II, Utah Medical Products, Inc., Midvale, Utah). […]
Background: LDH in the medium is a marker of cell lysis.

Assay [7] addresses NHE1 (Homo sapiens, UniProt P19634). As to conditions: cited from earlier work; for mortality in patients experiencing myocardial infarction: clinical trials GUARDIAN and ESCAMI.

Chain of NHE1 (Homo sapiens, UniProt P19634) (P19634 whole entry): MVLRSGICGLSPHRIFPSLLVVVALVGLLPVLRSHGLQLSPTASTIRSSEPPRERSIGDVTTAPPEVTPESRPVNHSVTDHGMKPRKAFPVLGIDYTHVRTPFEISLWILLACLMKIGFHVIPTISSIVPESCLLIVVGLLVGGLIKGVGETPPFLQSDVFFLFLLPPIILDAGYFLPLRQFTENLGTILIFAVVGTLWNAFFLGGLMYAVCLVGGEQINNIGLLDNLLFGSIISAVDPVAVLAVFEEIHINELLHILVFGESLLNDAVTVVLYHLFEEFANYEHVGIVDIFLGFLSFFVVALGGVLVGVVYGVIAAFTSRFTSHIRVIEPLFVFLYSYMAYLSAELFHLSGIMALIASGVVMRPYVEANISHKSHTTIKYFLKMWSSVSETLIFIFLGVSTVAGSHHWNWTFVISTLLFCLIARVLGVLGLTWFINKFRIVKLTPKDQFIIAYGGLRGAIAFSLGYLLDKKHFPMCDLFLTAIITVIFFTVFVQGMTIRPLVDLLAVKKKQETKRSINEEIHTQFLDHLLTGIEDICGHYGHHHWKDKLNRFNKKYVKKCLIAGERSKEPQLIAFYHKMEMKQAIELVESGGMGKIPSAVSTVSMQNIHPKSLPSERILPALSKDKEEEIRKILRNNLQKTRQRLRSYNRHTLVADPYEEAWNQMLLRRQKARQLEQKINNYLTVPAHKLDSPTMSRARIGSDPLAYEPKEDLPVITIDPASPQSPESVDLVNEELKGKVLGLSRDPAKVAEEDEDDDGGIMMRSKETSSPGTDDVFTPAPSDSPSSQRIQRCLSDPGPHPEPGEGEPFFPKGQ

Turning to `CN(N=O)C(=O)N[C@H]1C(O)O[C@H](CO)[C@@H](O)[C@@H]1O` (mixture of isomers) [STZ, Streptozotocin], the “fasting blood glucose level” value in assay [1] stood at 224 ± 5 mg/dL. In addition, the “PRECE mRNA expression in heart” value in assay [2] is “increased”. In addition, the “p90RSK activation (in vitro kinase assay)” value in assay [3] (DN-p90RSK-Tg mice + STZ) was 8009±797 cpm; in assay [3] (NLC mice + STZ), 12991±1810 cpm.
Take `CCN(c1nc(N)c(C(=O)NC(=N)N)nc1Cl)C(C)C` [EIPA]: the figures for the apoptosis in assay [4] (A/R + NHE-WT transfected H9c2 cells + EIPA) and in assay [4] (EIPA 5 μM + A/R (12 hr/24 hr) + WT-RSK transfected H9c2 cells) were 39±4% and 29.9±5.2%, respectively.
On to `OO` [H2O2], for which the “increase of NHE1 activity” value in assay [5] (LacZ expressing cardiomyocytes) amounted to 3 fold. Also, in assay [5] (LacZ expressing cardiomyocytes (basal 0.16±0.02)), the NHE1 activity stood at 0.49±0.13 pHi/min.
As to `C[C@H](CS)C(=O)N1CCC[C@H]1C(=O)O` [captopril], the “release of CK and LDH” value in assay [6] (NLC hearts, 40 min global ischemia and 25 min reperfusion) is reported as “no beneficial effect”. The “release of cardiac enzymes (CK and LDH)” value in assay [6] (WT-p90RSK-Tg hearts, 20 min ischemia and 25 min reperfusion) is given as “significantly reduced”.
Regarding `CC(C)c1ccc(C(=O)NC(=N)N)cc1S(C)(=O)=O` [cariporide], in assay [7], the “mortality in patients experiencing myocardial infarction” value was “no significant reduction in mortality”. The “improvement in LV function” value in assay [7] (subgroup of patients who underwent coronary artery bypass grafting) was 25%.
For the compound `Cc1cc(-n2cccc2)c(S(C)(=O)=O)cc1C(=O)NC(=N)N` [eniporide], in assay [7], the “mortality in patients experiencing myocardial infarction” value is “no significant reduction in mortality”.
